{"source": "patent US8633166B2", "about": "“Methicillin-resistant Staphylococcus aureus active metabolites” (priority 2009, dated 2014)", "key": {"streptococci": {"test_system": "streptococci", "test": "In vitro MIC, streptococci", "format": "cell-based, Streptococcus", "settings": "highest concentrations considered for MIC readings", "method": "(§1) All test articles were dissolved in DMSO. Stock solutions were prepared at 40-fold the highest concentration in the test plate. The final concentration of DMSO in the test system was 2.5%.\n(§2) The medium employed for the MIC assay was Mueller Hinton II Broth (MHB II-Becton Dickinson, #212322, Lot #9044411) for most of the organisms. MHB II was supplemented with 2% lysed horse blood (Cleveland Scientific Lot #22299-1) to accommodate the growth of Streptococcus pneumoniae, Streptococcus pyogenes and Streptococcus agalactiae. The media were prepared at 102.5% the normal weight to offset the dilution created by the addition of 5 μL drug solution to each well of the microdilution panels. […]\n(§3) Plates were stacked 3 high, covered with a lid on the top plate, placed in plastic bags, and incubated at 35° C. for approximately 18 hours for most of the isolates. The Streptococcus plates were read after 20 hours of incubation. […] The MIC was read and recorded as the lowest concentration of drug that inhibited visible growth of the organism."}, "[1]": {"test": "Maximum tolerated dose, preliminary experiment", "format": "in vivo, Mice (CD-1)", "settings": "20 mg/kg IP for two days", "method": "The number of MRSA isolated from vancomycin treated animals was 2.2×10^7 g of tissue, a reduction of 72% compared to vehicle control. Similarly, the number of MRSA recovered after treatment with compound (I) at 3 mg/kg and 15 mg/kg were 2.6×10^7 and 1.8×10^7 respectively, which correspond to a reduction of 67% and 78% as compared to vehicle control. […] To determine the maximum tolerated dose in the preliminary experiment, a maximum of 20 mg/kg of compound (1) was giving IP for two days."}, "[2]": {"test_system": "Methicillin-resistant Staphylococcus aureus", "test": "In vivo MRSA assay, thigh infection in a murine model", "design": "species or system Mice (CD-1)", "settings": "for number of MRSA recovered from muscle tissue: 48 hours, neutropenic mice", "method": "The in vivo antimicrobial activity for the isolated glycosides is represented in FIGS. 2A and 2B. Mice (CD-1) were purchased from Harlan Inc. and acclimatized up to 5 days before use. Food and water were available ad libitum throughout the study. They were rendered neutropenic by two injections of cyclophosphamide (100 mg/kg) given intraperitoneally, one and four days before infection. A volume of 50 uL suspension of Methicillin-resistant Staphylococcus aureus (1.5×10^6 live organisms) was injected intramuscularly (1M) into each of the two rear thighs. Each thigh was considered as an individual data point (total of 4 data points for each treatment). These mice were randomly distributed into the control or treatment groups (n=2/group).\nTreatment with the test compound (1) was initiated via the intraperitoneal route 2 hrs after thigh inoculation. Control animals were concurrently administered saline (mock treatment) or vancomycin in the same volume as those receiving compound (1). All animals were sacrificed after 48 hours by CO2 inhalation. Immediately following sacrifice, thigh tissue was collected from the animals, weighed, and homogenized in 5.0 mL of saline. Thigh muscle homogenate was then processed for microbiological assay to determine the number of MRSA cfu per gram of muscle tissue."}, "enterococci": {"test_system": "enterococci", "test": "In vitro MIC, for enterococci", "format": "cell-based", "settings": "E. faecalis and E. faecium, vancomycin-susceptible and vancomycin-resistant strains", "method": "as §1, §2, §3"}}, "data": [{"molecule": "C[C@@H]1O[C@@H](Oc2c(-c3ccc(O)cc3)oc3cc(O)cc(O)c3c2=O)[C@H](OC(=O)/C=C/c2ccc(O)cc2)[C@H](OC(=O)/C=C/c2ccc(O)cc2)[C@H]1O", "note": "[Compound 1, kaempferol 3-O-α-L-(2″,3″-di-E-p-coumaroyl)rhamnoside]", "values": [{"measurement": "activity against the streptococci", "setting": "streptococci", "result": "Neither compound was active"}, {"measurement": "acute toxicity at maximum dose given", "setting": "[1]", "result": "No untoward effect"}, {"measurement": "reduction compared to vehicle control", "setting": "[2]; 3 mg/kg", "result": 67, "unit": "%"}, {"measurement": "number of MRSA recovered from muscle tissue", "setting": "[2]; 3 mg/kg intraperitoneal", "result": "2.6×10^7 cfu/g"}, {"measurement": "reduction compared to vehicle control", "setting": "[2]; 15 mg/kg", "result": 78, "unit": "%"}, {"measurement": "number of MRSA recovered from muscle tissue", "setting": "[2]; 15 mg/kg intraperitoneal", "result": "1.8×10^7 cfu/g"}, {"measurement": "activity against enterococci", "setting": "enterococci", "result": "inhibited multiple strains"}]}]}
